# Assays:
# Type in all cases: in vivo
# [1] = test system: Alopecurus; assay: Pre-emergence test; details: greenhouse, scored after three weeks
# Experimental: (§1) Pre-emergence Test Solvent: 5 parts by weight of acetone Emulsifier: 1 part by weight of alkylaryl polyglycol ether To produce a suitable preparation of active compound, 1 part by weight of active compound is mixed with the stated amount of solvent, the stated amount of emulsifier is added and the concentrate is diluted with water to the desired concentration. Seeds of the test plants are sown in normal soil. After about 24 hours, the soil is watered with the preparation of active compound. The amount of water per unit area is advantageously kept constant. The concentration of active compound in the preparation is immaterial, only the application rate of active compound per unit area matters. After three weeks, the degree of damage to the plants is scored visually in % damage in comparison to the development of the untreated control. The figures denote: 0%=no effect (like untreated control) 100%=total destruction
# [2] = test system: Matricaria; assay: Pre-emergence test; details: greenhouse, 500 g of ai./ha, scored after three weeks
# Experimental: as §1
# [3] = test system: Maize; assay: Pre-emergence test; details: greenhouse, scored after three weeks
# Experimental: as §1
# [4] = test system: Abutilon; assay: Pre-emergence test; details: greenhouse, scored after three weeks
# Experimental: as §1
# [5] = test system: Datura; assay: Pre-emergence test; details: greenhouse, 500 g of ai./ha, scored after three weeks
# Experimental: as §1
# [6] = test system: Digitaria; assay: Pre-emergence test; details: greenhouse, 500 g of ai./ha, scored after three weeks
# Experimental: as §1
# [7] = test system: Echinochloa; assay: Pre-emergence test; details: greenhouse, 500 g of ai./ha, scored after three weeks
# Experimental: as §1
# [8] = test system: Galium; assay: Pre-emergence test; details: greenhouse, 1000 g of ai./ha, scored after three weeks
# Experimental: as §1
# [9] = test system: Setaria; assay: Pre-emergence test; details: greenhouse, 1000 g of ai./ha, scored after three weeks
# Experimental: as §1
# [10] = test system: Amaranthus; assay: Pre-emergence test; details: greenhouse, 1000 g of ai./ha, scored after three weeks
# Experimental: as §1
# [11] = test system: Sinapis; assay: Pre-emergence test; details: greenhouse, 1000 g of ai./ha, scored after three weeks
# Experimental: as §1
# [12] = test system: Viola; assay: Post-emergence test; details: greenhouse, scored after three weeks
# Procedure, shortened: (§2)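 Scoring is visual, in % damage compared with untreated plants, three weeks after treatment. The spray, an emulsified acetone formulation in water applied at 1000 l/ha, was delivered to test plants 5-15 cm high.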
# [13] = test system: Setaria; assay: Post-emergence test; details: greenhouse, scored after three weeks
# Procedure, shortened: as §2
# [14] = test system: Polygonum; assay: Post-emergence test; details: greenhouse, 125 g of ai./ha, scored after three weeks
# Procedure, shortened: as §2
# [15] = test system: Maize; assay: Post-emergence test; details: greenhouse, 125 g of ai./ha, scored after three weeks
# Procedure, shortened: as §2
# [16] = test system: Datura; assay: Post-emergence test; details: greenhouse, 125 g of ai./ha, scored after three weeks
# Procedure, shortened: as §2
# [17] = test system: Chenopodium; assay: Post-emergence test; details: greenhouse, scored after three weeks
# Procedure, shortened: as §2
# [18] = test system: Wheat; assay: Post-emergence test; details: greenhouse, scored after three weeks
# Procedure, shortened: as §2
# [19] = test system: Digitaria; assay: Post-emergence test; details: greenhouse, 125 g of ai./ha, scored after three weeks
# Procedure, shortened: as §2
# [20] = test system: Amaranthus; assay: Post-emergence test; details: greenhouse, 250 g of ai./ha, scored after three weeks
# Procedure, shortened: as §2
# [21] = test system: Stellaria; assay: Post-emergence test; details: greenhouse, 250 g of ai./ha, scored after three weeks
# Procedure, shortened: as §2
structure (smiles),measurement,setting,value
CC(F)c1nc(N)nc(NC(C)c2ccc(Cl)cc2)n1 (stereo not shown) [drawing 93],"% damage, Alopecurus",[1]; 500 g of ai./ha,100%
same,"% damage, Matricaria",[2],100%
same,"% damage, Maize",[3]; 500 g of ai./ha,0%
same,"% damage, Abutilon",[4]; 500 g of ai./ha,100%
same,"% damage, Datura",[5],100%
same,"% damage, Digitaria",[6],100%
same,"% damage, Echinochloa",[7],100%
CC(Nc1nc(N)nc(C(C)(C)F)n1)c1ccc(Cl)cc1 (stereo not shown) [drawing 96],"% damage, Galium",[8],100%
same,"% damage, Setaria",[9],100%
same,"% damage, Amaranthus",[10],100%
same,"% damage, Alopecurus",[1]; 1000 g of ai./ha,100%
same,"% damage, Sinapis",[11],100%
same,"% damage, Maize",[3]; 1000 g of ai./ha,20%
same,"% damage, Abutilon",[4]; 1000 g of ai./ha,100%
CC(F)c1nc(N)nc(NC(C)c2ccc(Cl)cc2)n1 (stereo not shown) [drawing 104],"% damage, Viola",[12]; 125 g of ai./ha,100%
same,"% damage, Setaria",[13]; 125 g of ai./ha,90%
same,"% damage, Polygonum",[14],100%
same,"% damage, Maize",[15],10%
same,"% damage, Datura",[16],100%
same,"% damage, Chenopodium",[17]; 125 g of ai./ha,100%
same,plant injury at 125 g/ha,"[18]; Triticum aestivum, 504 h, 125 g of ai./ha, read-out: % damage, Wheat",0%
same,"% damage, Digitaria",[19],80%
CC(F)c1nc(N)nc(NC(C)c2ccc(Cl)cc2)n1 (stereo not shown) [drawing 105],pest or weed control at 125 g/ha,"[12]; 504 h, 125 g of ai./ha, read-out: % damage, Viola",100%
same,pest or weed control at 125 g/ha,"[13]; Setaria, 504 h, 125 g of ai./ha, read-out: % damage, Setaria",80%
same,pest or weed control at 125 g/ha,"[14]; Polygonum, 504 h, read-out: % damage, Polygonum",100%
same,"% damage, Maize",[15],20%
same,"% damage, Datura",[16],100%
same,pest or weed control at 125 g/ha,"[17]; Chenopodium, 504 h, 125 g of ai./ha, read-out: % damage, Chenopodium",100%
CCC(Nc1nc(N)nc(C(F)(F)F)n1)c1ccc(Cl)cc1 (stereo not shown) [drawing 142],"% damage, Viola",[12]; 250 g of ai./ha,100%
same,"% damage, Setaria",[13]; 250 g of ai./ha,100%
same,"% damage, Amaranthus",[20],100%
same,"% damage, Stellaria",[21],100%
same,"% damage, Chenopodium",[17]; 250 g of ai./ha,100%
same,"% damage, Wheat",[18]; 250 g of ai./ha,10%
